Results published in paper PMC7400437, “Synthesis and Evaluation of the Antibacterial Activities of 13-Substituted Berberine Derivatives” (Antibiotics, 2020).
≈ marks a conversion by molar mass, not a printed value.

Tests used:
B. subtilis [1] = assay: Macromolecule synthesis inhibition assay by fluorescent microscopy (morphological changes); conditions: 4 × MIC, 2 h, 37 °C; for Observed Morphology: DNA, B. subtilis: DAPI
V. alginolyticus = assay: as above; conditions: 4 × MIC, 2 h, 37 °C; for Observed Morphology: DNA, V. alginolyticus: DAPI; for Observed Morphology: cell membrane, V. alginolyticus: FM4-64FX
S. aureus = assay: MIC, antimicrobial activity assay; format: cell-based, Staphylococcus aureus (ATCC 6538P); conditions: Staphylococcus aureus; Table 1 first screening; read-out: Minimal Inhibitory Concentration (MIC) S. aureus
B. subtilis [2] = assay: MIC, antimicrobial activity assay; format: cell-based, Bacillus subtilis (ATCC 6633); conditions: Bacillus subtilis; Table 1 first screening; read-out: Minimal Inhibitory Concentration (MIC) B. subtilis
E. coli = assay: MIC, antimicrobial activity assay; format: cell-based, Escherichia coli (ATCC 8739); conditions: Escherichia coli; Table 1 first screening; read-out: Minimal Inhibitory Concentration (MIC) E. coli
P. aeruginosa = assay: MIC, antimicrobial activity assay; format: cell-based, Pseudomonas aeruginosa (ATCC 9027); conditions: Pseudomonas aeruginosa; Table 1 first screening; read-out: Minimal Inhibitory Concentration (MIC) P. aeruginosa
M. smegmatis = assay: microbe, parasite or virus in culture; format: cell-based, Mycobacterium smegmatis (mc2155, ATCC 700084); conditions: Mycolicibacterium smegmatis, 72 h, read-out: Minimal Inhibitory Concentration (MIC) M. smegmatis
C. albicans = assay: MIC, antifungal activity assay; format: cell-based, Candida albicans (DSM 10697); conditions: Candida albicans; Table 1 first screening; 35 °C, 24 h; read-out: Minimal Inhibitory Concentration (MIC) C. albicans
[3] = system: BEAS (human airway epithelial cells); assay: Cytotoxic assay on human cells (resazurin); format: cell-based; conditions: Epithelial cell, 48 h, means +/−SD, read-out: Inhibitory Concentration 50 (IC50) on cell viability, BEAS
Procedure: (§1) The toxicity of berberine and berberine’s derivatives on human cells was evaluated using resazurin assay as previously described. Human cells used were BEAS (ATCC CRL-9609), Caco2 (ATCC HTB-37) and HepG2 (ATCC HB-8065) corresponding respectively to human airway epithelial cells, intestinal epithelial cells and liver cells. Cells were cultured in Dulbecco’s modified essential medium (DMEM) supplemented with 10% fetal bovine serum (FBS), 1% L-glutamine and 1% antibiotics (Thermo Fisher Scientific, Illkirch-Graffenstaden, France). Cells were routinely grown on 25 cm^2 flasks and maintained in a 5% CO2 incubator at 37 °C. For toxicity assay, cells were detached using trypsin–EDTA solution (Thermo Fisher Scientific), counted using Mallasez counting chamber and seeded into 96-well cell culture plates (Greiner bio-One, Dominique Dutscher, Brumath, France) at approximately 10,000 cells per well. The cells were left to grow for 48–72 h at 37 °C in a 5% CO2 incubator until they reached confluence. Media from wells was then aspirated and cells were treated with 100 µL of culture media containing increasing concentrations of berberine or berberine’s derivatives obtained by serial dilution (from 0 to 50 µM, 1:2 dilution), DMSO (0.5% DMSO final concentration) was used as negative control. After 48 h incubation at 37 °C in a 5% CO2 incubator, cell viability was evaluated using resazurin based in vitro toxicity assay kit (Sigma-Aldrich) following manufacturer’s instructions. Briefly, cell wells were emptied, and cells were treated with 100 µL of resazurin diluted 1:10 in sterile PBS containing calcium and magnesium (PBS^++, pH 7.4). After 4 h incubation at 37 °C, fluorescence intensity (excitation wavelength of 530 nm/emission wavelength of 590 nm) was measured using Synergy Mx microplate reader (Biotek). The fluorescence values were normalized by the controls (DMSO treated cells) and expressed as percent viability. The IC50 values of berberine and berberine’s derivatives on cell viability (i.e., the concentration of derivative causing a reduction of 50% of the cell viability) were calculated using GraphPad® Prism 7 software (San Diego, CA, USA). t-Test and two ways ANOVA analyses were used to address the significant differences between mean values with significance set at p < 0.05.

[4] = system: Caco2 (human intestinal epithelial cells); assay: Cytotoxic assay on human cells (resazurin); format: cell-based; conditions: Homo sapiens, Caco-2, 48 h, read-out: Inhibitory Concentration 50 (IC50) on cell viability, Caco2
Procedure: as §1

[5] = system: HepG2 (human liver cells); assay: Cytotoxic assay on human cells (resazurin); format: cell-based; conditions: HepG2, 48 h, read-out: Inhibitory Concentration 50 (IC50) on cell viability, HEPG2
Procedure: as §1

Row | Compound | Observed Morphology: cell elongation/enlargement, B. subtilis (B. subtilis [1]) | Observed Morphology: cells connected, B. subtilis (B. subtilis [1]) | Observed Morphology: DNA, B. subtilis (B. subtilis [1]) | Observed Morphology: cell membrane, B. subtilis (B. subtilis [1]; FM4-64FX) | Observed Morphology: cell elongation, V. alginolyticus (V. alginolyticus) | Observed Morphology: cells connected, V. alginolyticus (V. alginolyticus) | Observed Morphology: DNA, V. alginolyticus (V. alginolyticus) | Observed Morphology: cell membrane, V. alginolyticus (V. alginolyticus) | MIC (S. aureus) [µM] | MIC (B. subtilis [2]) [µM] | MIC (E. coli) [µM] | MIC (P. aeruginosa) [µM] | MIC (M. smegmatis) [µM] | MIC (C. albicans) [µM] | IC50 [3] [µM] | IC50 [4] [µM] | IC50 [5] [µM]
1 | CO[C@H]1/C=C/O[C@@]2(C)Oc3c(C)c(O)c4c(O)c(c(/C=N/N5CCN(C)CC5)c(O)c4c3C2=O)NC(=O)/C(C)=C\C=C\[C@H](C)[C@H](O)[C@@H](C)[C@@H](O)[C@@H](C)[C@H](OC(C)=O)[C@@H]1C [Rifampicin] | 2.5 times compared to control | 2–3 cells connected | DNA condensed in one thick filament crossing the cells some with dot like shape | Cell membrane thickening | 2.5 times compared to control | 1–2 cells connected | Condensed DNA spanning the cell | Cell membrane pigmentation |  |  |  |  |  |  |  |  | 
2 | COc1ccc2c(Cc3ccc(C#N)cc3)c3[n+](cc2c1OC)CCc1cc2c(cc1-3)OCO2 [Compound 7, 13-(4-Cyanobenzyl)Berberine] |  |  |  |  |  |  |  |  | 100 | > 100 | > 100 | > 100 | 100 | 100 |  |  | 
3 | COc1ccc2c(Cc3ccc(-c4nc5ccccc5s4)cc3)c3[n+](cc2c1OC)CCc1cc2c(cc1-3)OCO2 [Compound 19] |  |  |  |  |  |  |  |  | 1.5 to 3.12 | 1.5 | > 100 | > 100 | 12.5 | 6.25 | 4.92 ± 0.6 | 12 ± 1.3 | 31.2 ± 7.1
4 | COc1ccc2c(CC(=O)O)c3[n+](cc2c1OC)CCc1cc2c(cc1-3)OCO2 [Compound 5, 13-(Acetic Acid) Berberine] |  |  |  |  |  |  |  |  | 100 | 100 | > 100 | > 100 | 50 | > 100 |  |  | 
5 | COc1ccc2c(Cc3ccc(C=O)cc3)c3[n+](cc2c1OC)CCc1cc2c(cc1-3)OCO2 [Compound 12, 13-(4-Formylbenzyl)Berberine] |  |  |  |  |  |  |  |  | 100 | > 100 | > 100 | > 100 | 100 | > 100 |  |  | 
6 | COc1ccc2c(Cc3ccc(C=NO)cc3)c3[n+](cc2c1OC)CCc1cc2c(cc1-3)OCO2 [Compound 21, N-({4-[(Berberin-13-yl)methyl]phenyl}methylidene)hydroxylamine] |  |  |  |  |  |  |  |  | 50 | 100 | > 100 | > 100 | 50 | > 100 |  |  | 
7 | COc1ccc(Cc2c3[n+](cc4c(OC)c(OC)ccc24)CCc2cc4c(cc2-3)OCO4)c(OC)c1OC [Compound 14, 13[(2,3,4-Trimethoxyphenyl)methyl]Berberine] |  |  |  |  |  |  |  |  | 25 | 50 | > 100 | > 100 | 25 | > 100 | > 50 | > 50 | > 50
8 | COc1ccc2c(Cc3ccc(CN)cc3)c3[n+](cc2c1OC)CCc1cc2c(cc1-3)OCO2 [Compound 11, 13-(4-Aminomethylbenzyl)Berberine] |  |  |  |  |  |  |  |  | 25 | 25 | > 100 | > 100 | 50 | 100 | > 50 | > 50 | > 50
9 | COc1ccc2c(Cc3ccc4c(c3)OCO4)c3[n+](cc2c1OC)CCc1cc2c(cc1-3)OCO2 [Compound 13, 13-[(2H-1,3-Benzodioxol-5-yl)methyl]Berberine] |  |  |  |  |  |  |  |  | 6.25 to 12.5 | 25 | > 100 | > 100 | 12.5 | 50 | 16.9 ± 1.5 | 31.4 ± 3.8 | > 50
10 | COc1ccc2c(Cc3ccc(S(N)(=O)=O)cc3)c3[n+](cc2c1OC)CCc1cc2c(cc1-3)OCO2 [Compound 10, 13-(4-Sulfamoylbenzyl)Berberine] |  |  |  |  |  |  |  |  | > 100 | > 100 | > 100 | > 100 | > 100 | > 100 |  |  | 
11 | CC1(C)S[C@@H]2[C@H](NC(=O)[C@H](N)c3ccc(O)cc3)C(=O)N2[C@H]1C(=O)O [Amoxicillin] | 1.5 times compared to control | 2–4 cells connected | 2 condensed DNA in each cell |  | 1–3 times compared to control | 1–2 cells connected | Thick condensed and decondensed DNA spanning the cell | Cell membrane thickening |  |  |  |  |  |  |  |  | 
12 | C[C@@H]1[C@H](O)[C@@H](C)/C=C/C=C/C=C/C=C/C=C/C=C/C=C/[C@H](O[C@@H]2O[C@H](C)[C@@H](O)[C@H](N)[C@@H]2O)C[C@@H]2O[C@](O)(C[C@@H](O)C[C@@H](O)[C@H](O)CC[C@@H](O)C[C@@H](O)CC(=O)O[C@H]1C)C[C@H](O)[C@H]2C(=O)O [Amphotericin B, reference compound] |  |  |  |  |  |  |  |  |  |  |  |  |  | 1.1 (≈ 1.02 µg/mL) |  |  | 
13 | CO/N=C1\CN(c2nc3c(cc2F)c(=O)c(C(=O)O)cn3C2CC2)CC1CN (centres unmarked) [Gemifloxacin, reference compound] |  | Single cells | Decondensed DNA |  | 3–9 times compared to control | 1–2 cells connected | Thick condensed DNA spanning the cell |  | 0.06 (≈ 0.0234 µg/mL) | 0.02 (≈ 0.00779 µg/mL) | 0.06 (≈ 0.0234 µg/mL) | 0.25 (≈ 0.0973 µg/mL) | 2 (≈ 0.779 µg/mL) |  |  |  | 
14 | COc1ccc2c(c1OC)C(CC(C)=O)N1CCc3cc4c(cc3C1=C2)OCO4 (centres unmarked) [Compound 3, 8-acetonyl dihydroberberine] |  |  |  |  |  |  |  |  | 100 (≈ 39.3 µg/mL) | > 100 | > 100 | > 100 | 100 (≈ 39.3 µg/mL) | 100 (≈ 39.3 µg/mL) |  |  | 
15 | COc1ccc2c(Cc3ccc(/C=C/C(=O)O)cc3)c3[n+](cc2c1OC)CCc1cc2c(cc1-3)OCO2 [Compound 22, (2E)-3-{4-[(Berberin-13-yl)methyl]phenyl}prop-2-enoic Acid] |  |  |  |  |  |  |  |  | > 100 | > 100 | > 100 | > 100 | > 100 | > 100 |  |  | 
16 | COc1ccc2c(c1OC)CN1CCc3cc4c(cc3C1=C2)OCO4 [Compound 1, Dihydroberberine] |  |  |  |  |  |  |  |  | 100 (≈ 33.7 µg/mL) | > 100 | > 100 | > 100 | > 100 | 100 (≈ 33.7 µg/mL) |  |  | 
17 | CN(C)[C@@H]1C(O)=C(C(N)=O)C(=O)[C@@]2(O)C(O)=C3C(=O)c4c(O)cccc4[C@@](C)(O)[C@H]3C[C@@H]12 [Tetracycline] | 1.5–3 times compared to control | 1–3 cells connected | DNA condensed in one thin filament across the cells |  | 1.5–3 times compared to control | 1–3 cells connected | DNA condensed in one thin filament spiring the cells |  |  |  |  |  |  |  |  |  | 
